Converted amounts (≈) assume the structure as drawn.

What all share (type): cell-based
One test has as its system Alternaria alternata. As to the kind of experiment: 3 day MIC, broth microdilution in 25% PDB. As to conditions: 72 h, 25% PDB, read-out: 3 day MIC. As for the experimental part: (§1) Stock solutions (concentrations of between 4,000 μg/mL to 10,000 μg/mL; stored at −18° C.) of the above antifungals were prepared in dimethyl sulfoxide (DMSO). The stock solutions were further diluted into sterile 25% potato dextrose broth (PDB) so that the diluted solutions could be used for the antifungal susceptibility studies. This way, a typical microdilution study would reach a final ratio of about 0.5-2% v/v of DMSO in 25% PDB.
(§2) Spore inocula were prepared in sterile distilled water with 0.1% Tween® 20 (a polysorbate surfactant), and a hemocytometer was used to determine the spore density. Typically, the spore inoculum was prepared fresh prior to each study, and the inoculum was appropriately diluted to a final concentration of 0.4-1×10^5 spores/mL or colony-forming unit (CFU)/mL in each study. The spore suspension can be stored in a refrigerator at 4° C. for up to one week.
(§3) The studies were performed in flat bottom, 96-well microtiter plates (Greiner Bio-One, Frickenhausen, Germany).
(§4) Plates sealed with clear polyester film (VWR, Radnor, Pa.) were incubated at a temperature of about 25° C. The progress of fungal growth was monitored at 48 hours and 72 hours.

Test [1] concerns Stachybotrys chartarum. Briefly: 3 day MIC, broth microdilution in 25% PDB. As to conditions: 72 h, 25% PDB, read-out: 3 day MIC. As for the experimental part:
as §1, §2, §3, §4

The test system of a further test is Aspergillus flavus. As to the kind of experiment: 3 day MIC, broth microdilution in 25% PDB. As to conditions: 72 h. As for the experimental part: as §1, §2
(§5) The minimal inhibitory concentrations (MICs) for individual antifungal agents were determined by following a modified broth microdilution protocol CLSI (Clinical and Laboratory Standards Institute) M38-A2 [Clinical and Laboratory Standards Institute (2008) Reference method for broth dilution antifungal susceptibility testing of filamentous fungi—2nd edition: Approved Standard M38-A2, CLSI, Wayne, Pa.] where 25% potato dextrose broth (PDB) was used as the medium. The studies were performed in flat bottom, 96-well microtiter plates (Greiner Bio-One, Frickenhausen, Germany).
as §4

The subject of the next test is Aspergillus fumigatus. As to the kind of experiment: 3 day MIC, broth microdilution in 25% PDB. The following applies: 72 h. The procedure:
as §1, §2, §5, §4

A further test relates to Aspergillus niger. As to the kind of experiment: 3 day MIC, broth microdilution in 25% PDB. The following applies: 72 h. The procedure:
as §1, §2, §5, §4

A further test concerns Aureobasidium pullulans. As to the kind of experiment: 3 day MIC, broth microdilution in 25% PDB. The following applies: 72 h. The procedure:
as §1, §2, §5, §4

A further test concerns Fusarium oxysparum ST-33. Briefly: 3 day MIC, broth microdilution in 25% PDB. The following applies: ST33, 72 h. As for the experimental part:
as §1, §2, §5, §4

The subject of the next test is Mucor spp. As to the kind of experiment: 3 day MIC, broth microdilution in 25% PDB. The following applies: 72 h. The procedure:
as §1, §2, §5, §4

A further test deals with Rhizopus spp. As to the kind of experiment: 3 day MIC, broth microdilution in 25% PDB. As to conditions: 72 h. As for the experimental part:
as §1, §2, §5, §4

Test [2] concerns Stachybotrys chartarum. As to the kind of experiment: Fungus resistance test after painting over fungal growth (defacement rating). The following applies: painting over contaminated surfaces; paints containing 100 μg/mL; after 7 days. An excerpt: In this series of experiments, fungal growth was allowed to cover a painted surface (surface containing 2 coats of the unaltered paint) to a defacement rating of 3-5, forming a ‘contaminated surface’. […] The paint application was extended approximately 1-2 cm beyond the edge of the disc onto the NSA medium. Each formulation used a separate brush to avoid cross contamination. The re-painted discs were placed back into the humid environment with elevated temperature to encourage fungal growth.
This test was used to evaluate the ability of paint films containing antifungal additives to prevent the re-emergence of fungal growth after painting over existing growth.
Olympic® Home interior flat latex paint (PPG Industries, Pittsburgh, Pa.) and Valspar® QuikHide White flat interior paint (Valspar Corporation, Minneapolis, Minn.) were used for the experiments in this study unless specified. Stock solutions of the antifungal additives of interest were prepared in reagent grade dimethyl sulfoxide (DMSO; Alfa Aesar, Ward Hill, Mass.). Additives were spiked (by adding appropriate amounts of the antifungal stock solutions) into the liquid paint at specified concentrations. Samples of additive-spiked paint were vigorously mixed with a vortex mixer for at least one minute to insure uniform dispersion of the additive in the paint. […] Studies that used other brands of paint followed the same protocol as described for those using the Olympic® Home interior flat latex paint.
Test surfaces were prepared in triplicate. In most cases, the tested conditions were repeated on a different date, again in triplicate. […] Two coats of paint were applied with a polyester brush to completely cover both faces of the filter paper disc, allowing at least four hours drying time between coats.
Nutrient-Salts Agar (NSA) media was prepared according to ASTM method G21-13 in 100×15 mm sterile polystyrene petri dishes (VWR® Radnor, Pa.) with a solidified agar layer from 3 to 6 mm (⅛ to ¼ in.) in depth. The agar was allowed to solidify for at least 24 hours before being used. The painted test filter paper discs were placed in the center of the agar plates in a biosafety hood while wearing clean nitrile gloves.
The paint coatings were evaluated against three representative fungi: Stachybotrys chartarum, Penicillium chrysogenum, and Alternaria alternata. […] Fungal isolates of Alternaria alternata and Penicillium chrysogenum were obtained from the Plant Pathology and Environmental Microbiology Department at Penn State University.
A spore suspension of each of these fungi was prepared by pouring a 20-mL portion of autoclaved deionized water containing 0.01% Tween® 20 onto a subculture of each fungal species. Spores were counted with the use of a hemocytometer (Hausser Scientific, Horsham, Pa.) under a microscope. Spore suspensions of Stachybotrys chartarum and Penicillium chrysogenum were diluted to 1×10^6 spores/mL with autoclaved deionized water. Spore suspensions of Alternaria alternata were used “as is” in the range of 200,000 to 400,000 spores/mL.
Painted test surfaces were inoculated with a spray bottle or with a cotton-tipped applicator. To inoculate the sample with a spray bottle, the spore suspension was sprayed twice on the painted test discs with a spray bottle that delivered approximately 0.14 g of fluid per spray. To inoculate the sample with a cotton-tipped applicator, an autoclaved cotton-tipped applicator was submerged in approximately 400 μL of the inoculum solution and applied evenly over the surface of the painted test surface twice.

Consider `Nc1ccc2c(c1)COB2O` [Compound B6, 5-Amino-1,3-dihydro-2,1-benzoxaborol-1-ol], for which the MIC in the test with Alternaria alternata was 200 µg/mL (≈ 1340 µM); with Stachybotrys chartarum [1], 64 µg/mL (≈ 430 µM); against Aspergillus flavus, greater than 64 µg/mL; against Aspergillus fumigatus, greater than 64 µg/mL; against Aspergillus niger it was greater than 64 µg/mL; in the test on Aureobasidium pullulans, greater than 64 µg/mL. For the same molecule, the MIC in the test with Fusarium oxysparum ST-33, with Mucor spp. and against Rhizopus spp. was greater than 64 µg/mL in each case. Also, the “ability to inhibit Stachybotrys chartarum re-emergence on the surfaces” value in the test on Stachybotrys chartarum [2] is given as “very little ability to inhibit”.
Turning to `Cc1ccc2c(c1)COB2O` [Compound B1, 5-Methyl-1,3-dihydro-2,1-benzoxaborol-1-ol], the MIC in the test on Alternaria alternata was 6.3 µg/mL (≈ 42.6 µM); in the test with Stachybotrys chartarum [1], 0.5 µg/mL (≈ 3.38 µM); with Aspergillus flavus, 2 µg/mL (≈ 13.5 µM); against Aspergillus fumigatus, 0.25 µg/mL (≈ 1.69 µM); with Aspergillus niger, 2 µg/mL (≈ 13.5 µM); in the test on Aureobasidium pullulans it was 1 µg/mL (≈ 6.76 µM). Moreover, the MIC is 1 µg/mL (≈ 6.76 µM) against Fusarium oxysparum ST-33, 1 µg/mL (≈ 6.76 µM) in the test with Mucor spp. and 16 µg/mL (≈ 108 µM) against Rhizopus spp.. Besides, the “ability to inhibit Stachybotrys chartarum re-emergence on the surfaces” value in the test on Stachybotrys chartarum [2] is reported as “very little ability to inhibit”.

These data come from patent US10160867B2, “Benzoxaborole-containing coating resistant to cellulose-supportable fungus” (THE PENN STATE RESEARCH FOUNDATION, priority 2015, dated 2018).
